Legend:
[1] = tested on: Wnt/β-catenin pathway target genes in T98G cells; assay: qPCR of β-catenin and Wnt target genes, T98G; type: cell-based, human; conditions: 48 h, mRNA vs DMSO control, single agent
Method: (§1) Based on the MTT test, the lichen secondary metabolite concentrations allowing the survival of more than 70% of cells were chosen for the subsequent experiments. The compounds were added as follows: A-172 cells—atranorin 25 µM, caperatic acid 50 µM, physodic acid 25 µM, squamatic acid 25 µM, salazinic acid 50 µM, and lecanoric acid 100 µM; T98G cells—atranorin 50 µM, caperatic acid 100 µM, physodic acid 25 µM, squamatic acid 50 µM, salazinic acid 100 µM, and lecanoric acid 100 µM; U-138 MG cells—atranorin 25 µM, caperatic acid 50 µM, physodic acid 25 µM, squamatic acid 50 µM, salazinic acid 50 µM, and lecanoric acid 100 µM. As far as the TMZ treatment is concerned, it was added in the concentrations depending on the MGMT expression and methylation status, i.e., TMZ 30 µM was added to the A-172 cell line, and TMZ 100 µM was added to both the T98G and U-138 MG cell lines. In the case of the 2D culture, the cells were treated with the compounds 24 h after seeding, whereas, in regard to 3D culture, 5 days were needed to form spheroids. All subsequent analyses were performed 48 h after treatment.
(§2) The Universal RNA Purification Kit (EURx, Gdańsk, Poland) was used for total RNA isolation from the A-172, T98G, and U-138 MG cells, and the Revert-Aid First Strand cDNA Synthesis kit (Fermentas, Burlington, ON, Canada) was chosen for cDNA synthesis. Quantitative real-time PCR (qPCR) was performed using Hot FIREPol EvaGreen qPCR Mix Plus (Solis Biodyne, Tartu, Estonia) and LightCycler 96 (Roche Diagnostics GmbH, Mannheim, Germany). Primer sequences were previously published and their synthesis was performed at the Institute of Biochemistry and Biophysics, Warsaw, Poland. The protocol started with 15 min enzyme activation at 95 °C, followed by 40 cycles of 95 °C for 15 s; appropriate annealing temperature for 20 s; 72 °C for 40 s and the final elongation at 72 °C for 5 min. Melting curve analysis was used to confirm the generation of a single amplification product. TATA box-binding protein (TBP), a component of the DNA-binding protein complex TFIID, served as the endogenous RNA control. The results were expressed as N-fold differences in the gene expression relative to the TBP gene. The ΔΔCt method was used for fold-change calculation. All samples were analyzed in triplicate, and the reaction was repeated at least twice.

[2] = tested on: Wnt/β-catenin pathway target genes in A-172 cells; assay: qPCR of β-catenin and Wnt target genes, A-172; type: cell-based, human; conditions: A-172, 48 h
Method: as §1, §2

[3] = design: method as in PMID 34959693, PMID 33916370; conditions: previous studies, ref [5],[14]; cited from earlier work
A-172 cells = conditions: taken from the literature, ref [14]; read-out: IC50 [uM] ± SEM A-172; cited from earlier work
[4] = tested on: A375 melanoma cancer cells; design: method as in PMID 28012710; conditions: ref [33]; cited from earlier work
[5] = tested on: Wnt/β-catenin pathway target genes in U-138 MG cells; assay: qPCR of β-catenin and Wnt target genes, U-138 MG; type: cell-based, human; conditions: 48 h; for NEDD9 expression: TMZ 100 µM
Method: as §1, §2

U-138 MG cells [6] = tested on: U-138 MG cells; design: method as in PMID 33916370; conditions: taken from the literature, ref [14]; read-out: IC50 [uM] ± SEM U-138 MG; cited from earlier work
T98G cells [7] = assay: ROS (superoxide) generation, flow cytometry, T98G; type: cell-based, human; conditions: 48 h
Method: (§3) Based on the MTT test, the lichen secondary metabolite concentrations allowing the survival of more than 70% of cells were chosen for the subsequent experiments. The compounds were added as follows: A-172 cells—atranorin 25 µM, caperatic acid 50 µM, physodic acid 25 µM, squamatic acid 25 µM, salazinic acid 50 µM, and lecanoric acid 100 µM; T98G cells—atranorin 50 µM, caperatic acid 100 µM, physodic acid 25 µM, squamatic acid 50 µM, salazinic acid 100 µM, and lecanoric acid 100 µM; U-138 MG cells—atranorin 25 µM, caperatic acid 50 µM, physodic acid 25 µM, squamatic acid 50 µM, salazinic acid 50 µM, and lecanoric acid 100 µM. […]
The intracellular detection of superoxide radicals was detected by flow cytometric analysis after the staining with dihydroethidium, using The Muse® Oxidative Stress Kit (Merck, Darmstadt, Germany). Briefly, 100,000 cells per well were seeded on 6-well plates and after a 24 h incubation they were treated with the analyzed lichen secondary metabolites in the concentrations allowing >70% of cell survival; cells treated with DMSO were used as the negative control. […] The obtained data were evaluated using Muse® Analysis Software ver. […]

U-138 MG cells [8] = assay: Apoptosis, caspase-3/7 and 7-AAD flow cytometry, U-138 MG; type: cell-based, human; conditions: 48 h
Method: as §1
(§4) The fluorescent-based analysis of apoptosis using Muse® Caspase-3/7 Kit was performed in order to analyze the percentage of live, early, and late apoptotic; total apoptotic; and dead cells in A-172, T98G, and U-138 MG GBM cells treated with lichen secondary metabolites. The principle of the method relies on the measurement of the activity of executioner caspases, i.e., caspase-3 and caspase-7, as well as analyzing the integrity of the cell membrane with the use of a dead cell marker 7-AAD. Cell seeding and treatment followed the same protocol as for cell cycle or ROS generation analysis, while the subsequent procedures were performed according to the manufacturer’s recommendations.

T98G cells [9] = assay: Apoptosis, caspase-3/7 and 7-AAD flow cytometry, T98G; type: cell-based, human
Method: as §1, §4

T98G cells [10] = conditions: taken from the literature, ref [14]; read-out: IC50 [uM] ± SEM T98G; cited from earlier work
[11] = Parallel artificial membrane permeability assay for the blood-brain barrier (PAMPA-BBB); type: in vitro ADME; conditions: pH 7.4, 4 h, 37 °C, mean ± SEM, n = 3, Pe > 1.5 high, < 1.5 low permeation predicted, read-out: Pe × 10^−6
Method: The parallel artificial membrane permeability assay (PAMPA) for the blood-brain barrier (BBB) (Pion Inc., Billerica, MA, USA) was used to analyze whether the lichen secondary metabolites tested in this study were able to cross the BBB. The stock solutions (5 mg/mL) of tested compounds were prepared using DMSO. Next, the donor solution (24.75 μg/mL) using Prisma buffer (pH = 7.4; Prisma HT, Pion Inc., Billerica, MA, USA) were made. Firstly, 180 μL of the donor solution were added to the donor wells. Then the filter membranes were coated with 5 μL BBB-1 lipid solution (Pion Inc., Billerica, MA, USA) and the acceptor wells were filled with 200 μL BSB (Brain Sink Buffer, Pion Inc., Billerica, MA, USA). The plates were sandwiched together and incubated for 4 h at 37 °C (Thermo Scientific MaxQ 4450, Waltham, MA, USA). The results were determined by spectroscopic analysis (Multiskan GO microplate reader, Waltham, MA, USA), with the appropriate wavelength for a given compound (240 nm for […] salazinic acid, 250 nm for atranorin and squamatic acid, 263 nm for physodic acid, and 270 nm for lecanoric acid). […] Pe is the effective permeability coefficient (cm/s), VD-donor volume, VA-acceptor volume, Ceq-equilibrium concentration, Ceq=CD×VD+CA×VA/VD+VA , S-membrane area, and t-incubation time (in seconds). […] Samples were analyzed in triplicate, and the average was reported.

[12] = tested on: T98G cells-derived spheroids; assay: Microarray expression study of T98G spheroids; type: cell-based, human; conditions: 48 h, TMZ 100 µM, FC > abs. 2
Method: Moreover, the 3D culture of the T98G cell line was also established. The cells were cultured in ultra-low attachment microplates (Corning®, Corning, NY, USA) (1000 cell per well) to form spheroids. The standard medium was supplemented with Corning® Matrigel® Matrix for Organoid Culture (3.5%) (Corning®, Corning, NY, USA) and epidermal growth factor—EGF (10 ng/mL) (Stemcell Technologies, Vancouver, BC, Canada). Both 2D and 3D cell cultures were grown in a standard humidified incubator (Memmert, Schwabach, Germany) at 37 °C in 5% CO2 and 95% air atmosphere.
as §3
The obtained CEL files were further analyzed using the R statistical language and Bioconductor package, including the relevant Bioconductor libraries. […]

[13] = mRNA vs DMSO control, single agent, (TMZ 30 µM)
[14] = mRNA vs DMSO control, single agent

## Cn1ncnc2c(=O)n(C)c(=O)nc1-2 [PKF118-310, reference compound]
[1]
  c-MYC expression: did not diminish
[1]; TMZ 100 µM
  BIRC5 expression: downregulated
[2]; [13]
  c-MYC expression: did not diminish

## CC(=O)C1=C(O)C=C2Oc3c(C(C)=O)c(O)c(C)c(O)c3[C@]2(C)C1=O [(−)-usnic acid]
[3]
  ability to cross the blood-brain barrier: can cross the blood-brain barrier

## CCCCCC(=O)Cc1cc(O)cc2c1C(=O)Oc1cc(O)c(C(=O)O)c(CCCCC)c1O2 [Physodic acid]
A-172 cells
  IC50: 42.4 ± 1.25 µM
[3]
  ability to cross the blood-brain barrier: can cross the blood-brain barrier
[4]
  apoptosis induction: activated an apoptotic process
[5]; co-treatment with TMZ 100 µM
  expression of the Wnt target genes: huge downregulatory effect
[5]; [14]
  Axin2 expression: decreased
  CCND1 expression: downregulated CCND1 expression by around half
  NEDD9 expression: upregulated
U-138 MG cells [6]
  IC50: 45.7 ± 4.2 µM
[1]
  c-MYC expression: downregulated
[1]; TMZ 100 µM
  BIRC5 expression: downregulated
T98G cells [7]
  oxidative stress (superoxide) induction: induce oxidative stress
U-138 MG cells [8]
  effect on apoptosis: anti-apoptotic effect
T98G cells [9]; 48 h, topotecan 100 nM
  number of apoptotic cells vs control: significant increase
T98G cells [9]; 48 h treatment
  apoptotic cells detected: ~80%
T98G cells [10]
  IC50: 50.6 ± 1.09 µM
[2]; co-treatment with TMZ 30 µM
  CCND1 expression: upregulation
[2]; [14]
  NEDD9 expression: downregulated
[11]
  Papp at 4 h, 24.75 µg/mL: 3.9 ± 0.2 ×10⁻⁶ cm/s

## Cn1nnc2c(C(N)=O)ncn2c1=O [TMZ, temozolomide]
[12]
  number of significantly downregulated genes vs control: 46
  number of significantly upregulated genes vs control: 15
[5]; [14]
  NEDD9 expression: downregulated
[1]; TMZ 100 µM
  Axin2 expression: downregulation
  BIRC5 expression: downregulation
[2]; [13]
  Axin2 expression: upregulated
  c-MYC expression: upregulated

## COc1cc(C)c(C(=O)Oc2cc(C)c(C(=O)O)c(O)c2)c(O)c1 [evernic acid]
[3]
  ability to cross the blood-brain barrier: can cross the blood-brain barrier
